Converted amounts (≈) assume the structure as drawn. Read-outs that look alike come from different tables or passages of the source.
How the values were obtained:
Shigella sonnei IID 969 = assay: microbe, parasite or virus in culture; type: cell-based; conditions: Shigella sonnei
Description: (§1) The antibacterial activities of the compounds of the present invention were assayed by the standard agar dilution streak method against Gram-positive and Gram-negative bacteria [Chemotherapy, 22, 1126 (1974)].

E. coli ATCC 10536 = assay: Antibacterial activity (MIC), standard agar dilution streak method; type: cell-based, Escherichia coli; conditions: Escherichia coli, ATCC10536, read-out: Minimum inhibitory concentration
Description: as §1

[1] = test system: Citrobacter freundii IID 976; assay: as above; type: cell-based; conditions: read-out: Minimum inhibitory concentration
Description: as §1

[2] = test system: Enterobacter cloacae IID 977; assay: as above; type: cell-based; conditions: read-out: Minimum inhibitory concentration
Description: as §1

[3] = test system: Pseudomonas aeruginosa V-1; assay: as above; type: cell-based; conditions: read-out: Minimum inhibitory concentration
Description: as §1

[4] = test system: Serratia marcescens IID 618; assay: as above; type: cell-based; conditions: read-out: Minimum inhibitory concentration
Description: as §1

[5] = test system: Klebsiella pneumoniae IFO 3512; assay: as above; type: cell-based; conditions: read-out: Minimum inhibitory concentration
Description: as §1

[6] = test system: Staphylococcus aureus 209 p; assay: as above; type: cell-based; conditions: Staphylococcus aureus 209 p; read-out: Minimum inhibitory concentration
Description: as §1

[7] = test system: Yersinia enterocolitica IID 981; assay: as above; type: cell-based; conditions: read-out: Minimum inhibitory concentration
Description: as §1

Proteus vulgaris 3167 = assay: as above; type: cell-based; conditions: read-out: Minimum inhibitory concentration
Description: as §1

[8] = test system: Escherichia coli NIHJ JC-2; assay: as above; type: cell-based; conditions: read-out: Minimum inhibitory concentration
Description: as §1

P. mirabilis IID 994 = assay: as above; type: cell-based; conditions: Proteus mirabilis, IID994; P. mirabilis IID 994; read-out: Minimum inhibitory concentration
Description: as §1

[9] = test system: Alcaligenes faecalis 0104002; assay: as above; type: cell-based; conditions: read-out: Minimum inhibitory concentration
Description: as §1

[10] = test system: Salmonella enteritidis IID 604; assay: as above; type: cell-based; conditions: Salmonella enterica; Salmonella enteritidis IID 604; read-out: Minimum inhibitory concentration
Description: as §1

[11] = test system: Bacillus subtilis PCI 219; assay: as above; type: cell-based; conditions: PCI219; Bacillus subtilis PCI 219; read-out: Minimum inhibitory concentration
Description: as §1

[12] = test system: Acinetobacter anitratus IID 876; assay: as above; type: cell-based; conditions: Acinetobacter calcoaceticus, IID876, read-out: Minimum inhibitory concentration
Description: as §1

P. morganii IID 602 = assay: as above; type: cell-based; conditions: Morganella morganii, IID602, P. morganii IID 602; read-out: Minimum inhibitory concentration
Description: as §1

S. epidermidis IID 866 = assay: as above; type: cell-based; conditions: Staphylococcus epidermidis, IID866, read-out: Minimum inhibitory concentration
Description: as §1

S. aureus Terajima = assay: as above; type: cell-based, Staphylococcus aureus; conditions: Staphylococcus aureus; S. aureus Terajima; read-out: Minimum inhibitory concentration
Description: as §1

P. aeruginosa IFO 12689 = assay: as above; type: cell-based, Pseudomonas aeruginosa; conditions: Pseudomonas aeruginosa, IFO12689, P. aeruginosa IFO 12689; read-out: Minimum inhibitory concentration
Description: as §1

[13] = IID969, Shigella sonnei IID 969, read-out: Minimum inhibitory concentration
[14] = IID976, Citrobacter freundii IID 976
[15] = IID977, Enterobacter cloacae IID 977
[16] = Pseudomonas aeruginosa, V1, Pseudomonas aeruginosa V-1
[17] = IID618, Serratia marcescens IID 618
[18] = IFO3512, Klebsiella pneumoniae IFO 3512
[19] = IID981, Yersinia enterocolitica IID 981
[20] = NIHJJC2, Escherichia coli NIHJ JC-2
[21] = Citrobacter freundii, IID976, Citrobacter freundii IID 976
[22] = Enterobacter cloacae, IID977, Enterobacter cloacae IID 977
[23] = Serratia marcescens, IID618, Serratia marcescens IID 618
[24] = Klebsiella pneumoniae, IFO3512, Klebsiella pneumoniae IFO 3512
[25] = Yersinia enterocolitica, IID981, Yersinia enterocolitica IID 981
[26] = Proteus vulgaris, 3167, Proteus vulgaris 3167
[27] = Escherichia coli, NIHJJC2, Escherichia coli NIHJ JC-2
[28] = Alcaligenes faecalis, 0104002, Alcaligenes faecalis 0104002

Compound	MIC (Shigella sonnei IID 969; [13]) [µg/mL]	MIC (E. coli ATCC 10536) [µg/mL]	MIC [6] [µg/mL]	MIC (P. mirabilis IID 994) [µg/mL]	MIC [10] [µg/mL]	MIC [11] [µg/mL]	MIC [12] [µg/mL]	MIC (P. morganii IID 602) [µg/mL]	MIC (S. epidermidis IID 866) [µg/mL]	MIC (S. aureus Terajima) [µg/mL]	MIC (P. aeruginosa IFO 12689) [µg/mL]	MIC [1, 21] [µg/mL]	MIC [2, 22] [µg/mL]	MIC ([3]; V1, Pseudomonas aeruginosa V-1) [µg/mL]	MIC [4, 23] [µg/mL]	MIC [5, 24] [µg/mL]	MIC [7, 25] [µg/mL]	MIC (Proteus vulgaris 3167; [26]) [µg/mL]	MIC [8, 27] [µg/mL]	MIC [9, 28] [µg/mL]	other results
Cl.O=C(O)c1cn(CCF)c2c(F)c(N3CCNCC3)c(F)cc2c1=O [Example 4, 6,8-Difluoro-1-(2-fluoroethyl)-1,4-dihydro-4-oxo-7-(1-piperazinyl)quinoline-3-carboxylic acid hydrochloride]	≤ 0.05	0.1	3.13	≤ 0.05	0.05	0.39	3.13	0.2	1.56	3.13	1.56										MIC [1, 14]: ≤ 0.05 µg/mL; MIC [2, 15]: ≤ 0.05 µg/mL; MIC [3, 16]: 6.25 µg/mL; MIC [4, 17]: 0.39 µg/mL; MIC [5, 18]: ≤ 0.05 µg/mL; MIC [7, 19]: 0.05 µg/mL; MIC (Proteus vulgaris 3167; Proteus vulgaris 3167): ≤ 0.05 µg/mL; MIC [8, 20]: ≤ 0.05 µg/mL; MIC ([9]; Alcaligenes faecalis 0104002): 3.13 µg/mL
CCn1cc(C(=O)O)c(=O)c2cc(F)c(N3CCOCC3)c(F)c21 [Example 12, 1-Ethyl-6,8-difluoro-1,4-dihydro-7-(4-morpholinyl)4-oxoquinoline-3-carboxylic acid]	0.2 (≈ 0.591 µM)	0.39 (≈ 1.15 µM)	0.2 (≈ 0.591 µM)	0.2 (≈ 0.591 µM)	1.56 (≈ 4.61 µM)	≤ 0.05	1.56 (≈ 4.61 µM)	0.78 (≈ 2.31 µM)	0.39 (≈ 1.15 µM)	0.39 (≈ 1.15 µM)	12.5 (≈ 36.9 µM)	0.78 (≈ 2.31 µM)	1.56 (≈ 4.61 µM)	12.5 (≈ 36.9 µM)	1.56 (≈ 4.61 µM)	≤ 0.05	0.39 (≈ 1.15 µM)	≤ 0.05	0.2 (≈ 0.591 µM)	1.56 (≈ 4.61 µM)	
CCn1cc(C(=O)O)c(=O)c2cc(F)c(N3CCCC3)c(F)c21 [Example 11, 1-Ethyl-6,8-difluoro-1,4-dihydro-4-oxo-7-(1-pyrrolidinyl)quinoline-3-carboxylic acid]	0.2 (≈ 0.621 µM)	0.2 (≈ 0.621 µM)	0.1 (≈ 0.31 µM)	0.1 (≈ 0.31 µM)	1.56 (≈ 4.84 µM)	≤ 0.05	0.39 (≈ 1.21 µM)	0.39 (≈ 1.21 µM)	0.2 (≈ 0.621 µM)	0.1 (≈ 0.31 µM)	6.25 (≈ 19.4 µM)	0.39 (≈ 1.21 µM)	1.56 (≈ 4.84 µM)	6.25 (≈ 19.4 µM)	1.56 (≈ 4.84 µM)	≤ 0.05	0.39 (≈ 1.21 µM)	≤ 0.05	0.2 (≈ 0.621 µM)	0.39 (≈ 1.21 µM)	
CCn1cc(C(=O)O)c(=O)c2cc(F)c(N3CCC(N(C)C)CC3)c(F)c21 [Example 13, 1-Ethyl-6,8-difluoro-1,4-dihydro-7-(4-dimethylamino-1-piperidinyl)-4-oxoquinoline-3-carboxylic acid]	0.1 (≈ 0.264 µM)	0.2 (≈ 0.527 µM)	0.39 (≈ 1.03 µM)	0.39 (≈ 1.03 µM)	0.78 (≈ 2.06 µM)	0.1 (≈ 0.264 µM)	0.78 (≈ 2.06 µM)	1.56 (≈ 4.11 µM)	0.39 (≈ 1.03 µM)	0.39 (≈ 1.03 µM)	25 (≈ 65.9 µM)	0.39 (≈ 1.03 µM)	3.13 (≈ 8.25 µM)	12.5 (≈ 32.9 µM)	0.78 (≈ 2.06 µM)	≤ 0.05	0.78 (≈ 2.06 µM)	0.1 (≈ 0.264 µM)	≤ 0.05	6.25 (≈ 16.5 µM)	
CCn1cc(C(=O)O)c(=O)c2cc(F)c(N3CCN(CCO)CC3)c(F)c21 [Example 8, 1-Ethyl-6,8-difluoro-1,4-dihydro-7-[4-(2-hydroxyethyl)-1-piperazinyl]-4-oxoquinoline-3-carboxylic acid]	0.1 (≈ 0.262 µM)	0.2 (≈ 0.524 µM)	0.78 (≈ 2.05 µM)	0.2 (≈ 0.524 µM)	0.78 (≈ 2.05 µM)	0.1 (≈ 0.262 µM)	1.56 (≈ 4.09 µM)	0.78 (≈ 2.05 µM)	0.78 (≈ 2.05 µM)	0.78 (≈ 2.05 µM)	12.5 (≈ 32.8 µM)	0.39 (≈ 1.02 µM)	0.39 (≈ 1.02 µM)	12.5 (≈ 32.8 µM)	0.78 (≈ 2.05 µM)	≤ 0.05	0.39 (≈ 1.02 µM)	0.1 (≈ 0.262 µM)	≤ 0.05	1.56 (≈ 4.09 µM)	
C=CCN1CCN(c2c(F)cc3c(=O)c(C(=O)O)cn(CC)c3c2F)CC1 [Example 6, 7-(4-Allyl-1-piperazinyl)-1-ethyl-6,8-difluoro-1,4-dihydro-4-oxoquinoline-3-carboxylic acid]	0.2 (≈ 0.53 µM)	0.39 (≈ 1.03 µM)	0.78 (≈ 2.07 µM)	0.39 (≈ 1.03 µM)	1.56 (≈ 4.13 µM)	0.1 (≈ 0.265 µM)	0.78 (≈ 2.07 µM)	0.78 (≈ 2.07 µM)	0.78 (≈ 2.07 µM)	0.78 (≈ 2.07 µM)	25 (≈ 66.2 µM)	0.78 (≈ 2.07 µM)		12.5 (≈ 33.1 µM)	1.56 (≈ 4.13 µM)	≤ 0.05	0.78 (≈ 2.07 µM)	0.2 (≈ 0.53 µM)	0.1 (≈ 0.265 µM)	3.13 (≈ 8.29 µM)	MIC [2, 15]: 1.56 µg/mL (≈ 4.13 µM)
CCCn1cc(C(=O)O)c(=O)c2cc(F)c(N3CCNCC3)c(F)c21.Cl [Example 2, 6,8-Difluoro-1,4-dihydro-4-oxo-7-(1-piperazinyl)-1-n-propylquinoline-3-carboxylic acid hydrochloride]		0.2	1.56	0.1	0.2	0.2	1.56	0.39	3.13	3.13	6.25										MIC (Shigella sonnei IID 969; IID969, read-out: Minimum inhibitory concentration): 0.1 µg/mL; MIC [1, 14]: 0.2 µg/mL; MIC [2, 15]: 0.78 µg/mL; MIC [3, 16]: 12.5 µg/mL; MIC [4, 17]: 0.39 µg/mL; MIC [5, 18]: 0.1 µg/mL; MIC [7, 19]: 0.39 µg/mL; MIC (Proteus vulgaris 3167; Proteus vulgaris 3167): ≤ 0.05 µg/mL; MIC [8, 20]: ≤ 0.05 µg/mL; MIC ([9]; Alcaligenes faecalis 0104002): 1.56 µg/mL

— patent US4398029A, “Quinoline carboxylic acid derivatives and process for the preparation” (Kyorin Seiyaku Kabushiki Kaisha, priority 1981, dated 1983)
